Measured values: article PMC5129256 (International Journal of Environmental Research and Public …, 2016)
Where two headings read alike, the source gives them in different places.

Columns and labels:
in vitro = conditions: chicken, Viability of LMH Cells (%) ± SD, MTT
LMH cells [1] = conditions: for IC50 (%) / Viability of LMH Cells (%) ± SD: MTT; for IC50 (%): from dose-response curves
[2] = system: human colon adenocarcinoma cell line Caco-2; set-up: method as in ref 39 = [39]; 39. Olejnik A. Schmidt M. Wojnarowska K. Grajek W. The influence of toxic digestive metabolites on the proliferation and DNA damage of epithelial intestinal cells in vitro Food Sci. Technol. Qual. 200; conditions: Caco-2, concentrations as low as 10^-6 M; cited from earlier work
laboratory mice = conditions: mouse, in vivo; cited from earlier work
workers = system: workers; set-up: method as in ref 23 = [23]; 23. The MAK Collection for Occupational Health and Safety, Trimethylamine (MAK Value Documentation, 2004), Wiley Online Library Available online: http://onlinelibrary.wiley.com/doi/10.1002/3527600418.; conditions: cited from earlier work
LMH cells [3] = conditions: PrestoBlue; for Viability of LMH Cells (%) ±S.E.M.: 24 h

c1ccc2[nH]ccc2c1 [Indole]
viability (in vitro; 0.0004%, 24 h): 88.6 ± 0.6% | viability (in vitro; 0.0004%, 72 h): 90.7 ± 1.3% | viability (in vitro; 0.0008%, 24 h): 95 ± 0.2% | viability (in vitro; 0.0008%, 72 h): 94.3 ± 2.4% | viability (in vitro; 0.0016%, 24 h): 97.4 ± 0.2% | viability (in vitro; 0.0016%, 72 h): 94.8 ± 2.1% | viability (in vitro; 0.0063%, 24 h): 103 ± 0.4% | viability (in vitro; 0.0063%, 72 h): 109 ± 2.5% | viability (in vitro; 0.0125%, 24 h): 95.5 ± 0.8% | viability (in vitro; 0.0125%, 72 h): 103 ± 1.2% | viability (in vitro; 0.025%, 24 h): 102.4 ± 0.2% | viability (in vitro; 0.025%, 72 h): 73.5 ± 2% | viability (in vitro; 0.05%, 24 h): 94.3 ± 0.6% | viability (in vitro; 0.05%, 72 h): 73 ± 1.7% | viability (in vitro; 0.1%, 24 h): 82.2 ± 0.2% | viability (in vitro; 0.1%, 72 h): 60.3 ± 1.6% | viability (in vitro; […], 24 h): 100 ± 0.4% | viability (in vitro; […], 72 h): 104 ± 1.9% | cytotoxicity (in words) (LMH cells [1]): not cytotoxic | IC50 (%) (LMH cells [1]; 72 h exposure): 0.06% | cytotoxicity (LMH cells [1]; chicken): 39.7%

Oc1ccccc1 [Phenol]
cell proliferation and cell survival [2]: 56% | concentration reducing the respiratory rate by 50% (laboratory mice): 166 ppm | cytotoxicity (in words) (LMH cells [1]): not cytotoxic | cytotoxicity (LMH cells [1]; chicken): 85.5%

CN(C)C [Trimethylamine]
RD50 (laboratory mice): 61 mL/m^3 | cytotoxicity (LMH cells [1]): above 95% | Viability of LMH Cells (%) ± SD (LMH cells [1]; 0.004%, 24 h): 95.5 ± 1.9% | Viability of LMH Cells (%) ± SD (LMH cells [1]; 0.004%, 48 h): 92.5 ± 5.5% | Viability of LMH Cells (%) ± SD (LMH cells [1]; 0.008%, 24 h): 100.1 ± 3.1% | Viability of LMH Cells (%) ± SD (LMH cells [1]; 0.008%, 48 h): 84.9 ± 8.1% | Viability of LMH Cells (%) ± SD (LMH cells [1]; 0.016%, 24 h): 103.6 ± 2.2% | Viability of LMH Cells (%) ± SD (LMH cells [1]; 0.016%, 48 h): 72.8 ± 6.5 % | Viability of LMH Cells (%) ± SD (LMH cells [1]; 0.063%, 24 h): 69.7 ± 5.9 % | Viability of LMH Cells (%) ± SD (LMH cells [1]; 0.063%, 48 h): 2.8 ± 0.2 % | Viability of LMH Cells (%) ± SD (LMH cells [1]; 0.125%, 24 h): 8.6 ± 0.5 % | Viability of LMH Cells (%) ± SD (LMH cells [1]; 0.125%, 48 h): 5.4 ± 0.3 % | Viability of LMH Cells (%) ± SD (LMH cells [1]; 0.25%, 24 h): 7.6 ± 0.3 % | Viability of LMH Cells (%) ± SD (LMH cells [1]; 0.25%, 48 h): 4.1 ± 0.3 % | Viability of LMH Cells (%) ± SD (LMH cells [1]; 0.5%, 24 h): 7.9 ± 0.2 % | Viability of LMH Cells (%) ± SD (LMH cells [1]; 0.5%, 48 h): 3.8 ± 0.3 % | Viability of LMH Cells (%) ± SD (LMH cells [1]; 1.0%, 24 h): 7.0 ± 0.1 % | Viability of LMH Cells (%) ± SD (LMH cells [1]; 1.0%, 48 h): 2.5 ± 0.3 % | IC50 (%) (LMH cells [1]; 24 h exposure): 0.08% | IC50 (%) (LMH cells [1]; 48 h exposure): 0.04% | Viability of LMH Cells (%) ± SD (LMH cells [1]; […], 24 h): 97.8 ± 1.8% | Viability of LMH Cells (%) ± SD (LMH cells [1]; […], 48 h): 61.7 ± 8.9 % | toxic effects in workers (workers; concentrations of 20 mL/m^3): irritant to the mucous membranes and the eyes | toxic effects in workers (workers; mean exposure concentrations of 5 mL/m^3 for 8 h): no toxic effects | Viability of LMH Cells (%) ±S.E.M. (LMH cells [3]; 0.004%): 72.4 ± 5.4% | Viability of LMH Cells (%) ±S.E.M. (LMH cells [3]; 0.008%): 54.3 ± 10.9% | Viability of LMH Cells (%) ±S.E.M. (LMH cells [3]; 0.016%): 51.9 ± 2.9% | Viability of LMH Cells (%) ±S.E.M. (LMH cells [3]; 0.063%): 36.6 ± 2.4% | Viability of LMH Cells (%) ±S.E.M. (LMH cells [3]; 0.125%): 17.1 ± 2.3 % | Viability of LMH Cells (%) ±S.E.M. (LMH cells [3]; 0.25%): 13.6 ± 2.3 % | Viability of LMH Cells (%) ±S.E.M. (LMH cells [3]; 0.5%): 7.1 ± 0.4 % | Viability of LMH Cells (%) ±S.E.M. (LMH cells [3]; 1.0%): 6.0 ± 0.3 % | IC50 (%) (LMH cells [3]; 24 h exposure, from dose-response curves): 0.02% | Viability of LMH Cells (%) ±S.E.M. (LMH cells [3]; […]): 38.9 ± 9.6%
